Reference: US20220259593A1, “CONTROL OF MAMMALIAN GENE DOSAGE USING CRISPR” (The Regents of the University of California, priority 2019, published 2022)

Test system: K562 CRISPRi cells
Assay: Perturb-seq pooled growth measurement (sgRNA counts, growth phenotype γ, relative activity)
Type: cell-based, human
Conditions: sequencing read counts; for Perturb-seq pooled growth sgRNA counts, d5: 5 days of growth (day seven after transduction); for Perturb-seq pooled growth sgRNA counts, d10: 10 days of growth (day twelve after transduction); for Perturb-seq pooled growth sgRNA counts, T0: T0 = day two after transduction
In short: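 CRISPRi K562 cells from the Perturb-seq transduced pool; 500,000-cell samples taken days two, seven and twelve post-transduction. sgRNA amplicons from genomic DNA sequenced; growth phenotypes from normalized sgRNA abundances at days seven and twelve versus day two. Relative activity assigned from day seven (five days' growth).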

Substance	Perturb-seq pooled growth sgRNA counts, d5	Perturb-seq pooled growth sgRNA counts, d10	Perturb-seq pooled growth sgRNA counts, T0
HSPE1_+_198365089.23-P1P2_02: sgRNA targeting HSPE1, GGAGACTGGCAGTCCGGCCC, SEQ ID NO: 67 (listed as DNA, chemistry not fully specified)	5731	4437	7969
HSPE1_+_198365089.23-P1P2_03: sgRNA targeting HSPE1, GGTGACTCGCAGTCCGGCCC, SEQ ID NO: 66 (listed as DNA, chemistry not fully specified)	3034	2279	7473
HSPE1_+_198365089.23-P1P2_14: sgRNA targeting HSPE1, GGAGACTCGCAGTCCTGCCC, SEQ ID NO: 68 (listed as DNA, chemistry not fully specified)	6501	6498	4808
MTOR_+_11322547.23-P1P2_00: sgRNA targeting MTOR, GGGCAGGGGGCCTGAAGCGG, SEQ ID NO: 146 (listed as DNA, chemistry not fully specified)	6328	3144	17632
MTOR_+_11322547.23-P1P2_05: sgRNA targeting MTOR, GGGCAGGGGGCTTGAAGCGG, SEQ ID NO: 148 (listed as DNA, chemistry not fully specified)	4083	3324	5595
MTOR_+_11322547.23-P1P2_06: sgRNA targeting MTOR, GGGCAGGGGGGCTGAAGCGG, SEQ ID NO: 149 (listed as DNA, chemistry not fully specified)	3358	3174	4142
MTOR_+_11322547.23-P1P2_07: sgRNA targeting MTOR, GGGCAGGGGGTCTGAAGCGG, SEQ ID NO: 147 (listed as DNA, chemistry not fully specified)	3183	1899	6761
MTOR_+_11322547.23-P1P2_10: sgRNA targeting MTOR, GGGCAGGGGGCCTGAAGCAG, SEQ ID NO: 150 (listed as DNA, chemistry not fully specified)	7332	7827	7076
POLR1D_+_28196016.23-P1_00: sgRNA targeting POLR1D, GGGAAGCAAGGACCGACCGA, SEQ ID NO: 11 (listed as DNA, chemistry not fully specified)	3429	1496	11671
POLR1D_+_28196016.23-P1_01: sgRNA targeting POLR1D, GGGAAGCCAGGACCGACCGA, SEQ ID NO: 76 (listed as DNA, chemistry not fully specified)	4460	2528	12679
POLR1D_+_28196016.23-P1_03: sgRNA targeting POLR1D, GGTAAGCAAGGACCGACCGA, SEQ ID NO: 75 (listed as DNA, chemistry not fully specified)	2365	933	10266
POLR1D_+_28196016.23-P1_07: sgRNA targeting POLR1D, GGGAAGCAAGGAGCGACCGA, SEQ ID NO: 77 (listed as DNA, chemistry not fully specified)	16283	16285	15589
POLR1D_+_28196016.23-P1_08: sgRNA targeting POLR1D, GGGAAGCAGGGACCGACCGA, SEQ ID NO: 74 (listed as DNA, chemistry not fully specified)	4205	1986	16414
POLR2H_+_184081251.23-P1P2_00: sgRNA targeting POLR2H, GGGGCCACGAGAGCAGCAGA, SEQ ID NO: 28 (listed as DNA, chemistry not fully specified)	947	1103	9498
POLR2H_+_184081251.23-P1P2_07: sgRNA targeting POLR2H, GGGGCCACGAGTGCAGCAGA, SEQ ID NO: 118 (listed as DNA, chemistry not fully specified)	6381	8153	4472
POLR2H_+_184081251.23-P1P2_08: sgRNA targeting POLR2H, GGGGCCACGCGAGCAGCAGA, SEQ ID NO: 116 (listed as DNA, chemistry not fully specified)	3492	3869	6134
POLR2H_+_184081251.23-P1P2_11: sgRNA targeting POLR2H, GGGGCCACGAGAGCAGCGGA, SEQ ID NO: 115 (listed as DNA, chemistry not fully specified)	898	1144	5900
POLR2H_+_184081251.23-P1P2_12: sgRNA targeting POLR2H, GGGGCCACGAGAGCAGGAGA, SEQ ID NO: 117 (listed as DNA, chemistry not fully specified)	4854	5996	5334
RAN_+_131356438.23-P1P2_00: sgRNA targeting RAN, GGCGGTCGCTGCGCTTAGGG, SEQ ID NO: 69 (listed as DNA, chemistry not fully specified)	7598	8936	5444
RAN_+_131356438.23-P1P2_02: sgRNA targeting RAN, GGCGGCCGCTGCGCTTAGGG, SEQ ID NO: 70 (listed as DNA, chemistry not fully specified)	15046	15358	11853
RAN_+_131356438.23-P1P2_03: sgRNA targeting RAN, GGGGGTCGCTGCGCTTAGGG, SEQ ID NO: 71 (listed as DNA, chemistry not fully specified)	6698	6816	5056
RAN_+_131356438.23-P1P2_04: sgRNA targeting RAN, GGCGGTCGCGGCGCTTAGGG, SEQ ID NO: 72 (listed as DNA, chemistry not fully specified)	11409	14870	6001
